# Reference: patent US8134015B2, “Compound inhibiting in vivo phosphorous transport and medicine containing the same” (Kyowa Hakko Kirin Co., Ltd., priority 2003, dated 2012)
# Target: T1, rat NaPi-2b (Rattus norvegicus, UniProt Q9JJ09)
# T1 construct: expressed in transfected cells; host or cells: Xenopus oocytes injected with cRNA
# T1 sequence (Q9JJ09 1-695): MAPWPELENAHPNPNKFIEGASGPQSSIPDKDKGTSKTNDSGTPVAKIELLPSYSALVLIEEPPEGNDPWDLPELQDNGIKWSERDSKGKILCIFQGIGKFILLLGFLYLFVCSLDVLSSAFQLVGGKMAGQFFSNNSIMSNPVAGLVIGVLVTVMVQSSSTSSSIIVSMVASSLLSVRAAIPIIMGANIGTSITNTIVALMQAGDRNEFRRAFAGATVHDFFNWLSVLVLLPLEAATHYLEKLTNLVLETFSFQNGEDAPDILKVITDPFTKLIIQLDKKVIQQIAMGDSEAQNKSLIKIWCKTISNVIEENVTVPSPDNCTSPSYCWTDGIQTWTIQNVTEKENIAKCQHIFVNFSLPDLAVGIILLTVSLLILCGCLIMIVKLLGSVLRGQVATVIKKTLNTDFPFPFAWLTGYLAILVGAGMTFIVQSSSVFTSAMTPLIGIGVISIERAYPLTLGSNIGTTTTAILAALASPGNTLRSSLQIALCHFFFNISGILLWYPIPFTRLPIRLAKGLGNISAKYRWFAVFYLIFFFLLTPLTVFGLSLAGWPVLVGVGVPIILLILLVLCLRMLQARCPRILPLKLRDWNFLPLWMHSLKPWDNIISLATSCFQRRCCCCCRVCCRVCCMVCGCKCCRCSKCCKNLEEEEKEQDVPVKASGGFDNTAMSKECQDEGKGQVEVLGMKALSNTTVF
# Assay: Sodium-dependent phosphate uptake of Xenopus oocytes which expressed NaPi-2b (32P)
# Type: cell-based
# Conditions: Xenopus oocytes expressing rat NaPi-2b, 32P radioactive phosphorus; read-out: IC50 (phosphate uptake inhibitory activity)
# Outline: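 Oocytes injected with rat NaPi-2b cRNA, cultured 2 d, then 32P uptake measured with compound. Values: % inhibition at 300 and 100 μM, both from one inhibition curve.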
row,IC50 [nM],SMILES
1,1880,"CCN(CC)CCN(CCN(CC)CC)Cc1cccc(C(=O)Nc2sc3c(c2C(=O)N/N=C/c2ccc(C)cc2)CCCC3)c1 [Compound 1056, 3-{[Bis-(2-diethylamino-ethyl)-amino]-methyl}-N-[3-(4-methyl-benzylidene-hydrazinocarbonyl)-4,5,6,7-tetrahydro-benzo[b]thiophen-2-yl]-benzamide]"
2,6760,"O=C(Nc1ccc(N2CCC(O)CC2)cc1C(=O)N/N=C/c1ccc(Cl)c(C(F)(F)F)c1)c1cccc(CSCCO)c1 [Compound 1062, N-[2-(4-Chloro-3-trifluoromethyl-benzylidene-hydrazinocarbonyl)-4-(4-hydroxy-piperidin-1-yl)-phenyl]-3-(2-hydroxy-ethylsulfanylmethyl)-benzamide]"
3,< 1000,"Cc1ccc(/C=N/NC(=O)c2cc(N3CCOCC3)ccc2NC(=O)c2cccc(CSCCO)c2)cc1C [Compound 1064, N-[2-(3,4-Dimethyl-benzylidene-hydrazinocarbonyl)-4-morpholin-4-yl-phenyl]-3-(2-hydroxy-ethylsulfanylmethyl)-benzamide]"
4,1210,"O=C(Nc1ccc(N2CCOCC2)cc1C(=O)N/N=C/c1ccc(Cl)c(C(F)(F)F)c1)c1cccc(CSCCO)c1 [Compound 1065, N-[2-(4-Chloro-3-trifluoromethyl-benzylidene-hydrazinocarbonyl)-4-morpholin-4-yl-phenyl]-3-(2-hydroxy-ethylsulfanylmethyl)-benzamide]"
5,2690,"COc1ccc(/C=N/NC(=O)c2cc(N3CCOCC3)ccc2NC(=O)c2cccc(CSCCO)c2)cc1 [Compound 1066, 3-(2-Hydroxy-ethylsulfanylmethyl)-N-[2-(4-methoxy-benzylidene-hydrazinocarbonyl)-4-morpholin-4-yl-phenyl]-benzamide]"
6,2790,O=C(Nc1ccc(N2CCC(N3CCCCC3)CC2)cc1C(=O)N/N=C/c1ccc(Cl)c(C(F)(F)F)c1)c1cccc(CSCCO)c1 [Compound 1067]
7,< 1000,"Cc1ccc(/C=N/NC(=O)c2cc(N3CCC(C)CC3)ccc2NC(=O)c2cccc(CSCCO)c2)cc1C [Compound 1069, N-[2-(3,4-Dimethyl-benzylidene-hydrazinocarbonyl)-4-(4-methyl-piperidin-1-yl)-phenyl]-3-(2-hydroxy-ethylsulfanylmethyl)-benzamide]"
8,< 1000,"CC1CCN(c2ccc(NC(=O)c3cccc(CSCCO)c3)c(C(=O)N/N=C/c3ccc(Cl)c(C(F)(F)F)c3)c2)CC1 [Compound 1070, N-[2-(4-Chloro-3-trifluoromethyl-benzylidene-hydrazinocarbonyl)-4-(4-methyl-piperidin-1-yl)-phenyl]-3-(2-hydroxy-ethylsulfanylmethyl)-benzamide]"
9,< 1000,"COc1ccc(/C=N/NC(=O)c2cc(N3CCC(C)CC3)ccc2NC(=O)c2cccc(CSCCO)c2)cc1 [Compound 1071, 3-(2-Hydroxy-ethylsulfanylmethyl)-N-[2-(4-methoxy-benzylidene-hydrazinocarbonyl)-4-(4-methyl-piperidin-1-yl)-phenyl]-benzamide]"
10,3880,"CN1CCN(c2ccc(NC(=O)c3cccc(CSCCO)c3)c(C(=O)N/N=C/c3ccc(Cl)c(C(F)(F)F)c3)c2)CC1 [Compound 1072, N-[2-(4-Chloro-3-trifluoromethyl-benzylidene-hydrazinocarbonyl)-4-(4-methyl-piperazin-1-yl)-phenyl]-3-(2-hydroxy-ethylsulfanylmethyl)-benzamide]"
11,20400,"COc1ccc(/C=N/NC(=O)c2cc(N3CCN(C)CC3)ccc2NC(=O)c2cccc(CSCCO)c2)cc1 [Compound 1073, 3-(2-Hydroxy-ethylsulfanylmethyl)-N-[2-(4-methoxy-benzylidene-hydrazinocarbonyl)-4-(4-methyl-piperazin-1-yl)-phenyl]-benzamide]"
12,1540,"CCN(CC)CCN(C)Cc1cccc(C(=O)Nc2ccc(N3CCOCC3)cc2C(=O)N/N=C/c2ccc(C)c(C)c2)c1 [Compound 1074, 3-{[(2-Diethylamino-ethyl)-methyl-amino]-methyl}-N-[2-(3,4-dimethyl-benzylidene-hydrazinocarbonyl)-4-morpholin-4-yl-phenyl]-benzamide]"
13,1340,"CCN(CC)CCN(C)Cc1cccc(C(=O)Nc2ccc(N3CCOCC3)cc2C(=O)N/N=C/c2ccc(Cl)c(C(F)(F)F)c2)c1 [Compound 1075, N-[2-(4-Chloro-3-trifluoromethyl-benzylidene-hydrazinocarbonyl)-4-morpholin-4-yl-phenyl]-3-{[(2-diethylamino-ethyl)-methyl-amino]-methyl}-benzamide]"
14,2570,"CCN(CC)CCN(C)Cc1cccc(C(=O)Nc2ccc(N3CCOCC3)cc2C(=O)N/N=C/c2ccc(OC)cc2)c1 [Compound 1076, 3-{[(2-Diethylamino-ethyl)-methyl-amino]-methyl}-N-[2-(4-methoxy-benzylidene-hydrazinocarbonyl)-4-morpholin-4-yl-phenyl]-benzamide]"

row,SMILES,IC50 [nM]
1,"O=C(Nc1ccc(OCCCCF)cc1C(=O)N/N=C/c1cccc(F)c1)c1cccc(CSCCO)c1 [Compound 1051, N-[2-(3-Fluoro-benzylidene-hydrazinocarbonyl)-4-(4-fluoro-butoxy)-phenyl]-3-(2-hydroxy-ethylsulfanylmethyl)-benzamide]",1160
2,"Cc1ccc(/C=N/NC(=O)c2cc(OCCCCF)ccc2NC(=O)c2cccc(CSCCO)c2)cc1 [Compound 1052, N-[4-(4-Fluoro-butoxy)-2-(4-methyl-benzylidene-hydrazinocarbonyl)-phenyl]-3-(2-hydroxy-ethylsulfanylmethyl)-benzamide]",1330
3,"Cc1ccc(/C=N/NC(=O)c2cc(OCCCCF)ccc2NC(=O)c2cccc(CSCCO)c2)cc1C [Compound 1053, N-[2-(3,4-Dimethyl-benzylidene-hydrazinocarbonyl)-4-(4-fluoro-butoxy)-phenyl]-3-(2-hydroxy-ethylsulfanylmethyl)-benzamide]",< 1000
4,"O=C(Nc1ccc(OCCCCF)cc1C(=O)N/N=C/c1ccc(Cl)c(C(F)(F)F)c1)c1cccc(CSCCO)c1 [Compound 1054, N-[2-(4-Chloro-3-trifluoromethyl-benzylidene-hydrazinocarbonyl)-4-(4-fluoro-butoxy)-phenyl]-3-(2-hydroxy-ethylsulfanylmethyl)-benzamide]",< 1000
5,"COc1ccc(/C=N/NC(=O)c2cc(OCCCCF)ccc2NC(=O)c2cccc(CSCCO)c2)cc1 [Compound 1055, N-[4-(4-Fluoro-butoxy)-2-(4-methoxy-benzylidene-hydrazinocarbonyl)-phenyl]-3-(2-hydroxy-ethylsulfanylmethyl)-benzamide]",1960
6,"CCN(CC)CCN(C)Cc1cccc(C(=O)Nc2ccc(OCCCCF)cc2C(=O)N/N=C/c2cccc(F)c2)c1 [Compound 1057, 3-{[(2-Diethylamino-ethyl)-methyl-amino]-methyl}-N-[2-(3-fluoro-benzylidene-hydrazinocarbonyl)-4-(4-fluoro-butoxy)-phenyl]-benzamide]",1260
7,"CCN(CC)CCN(C)Cc1cccc(C(=O)Nc2ccc(OCCCCF)cc2C(=O)N/N=C/c2ccc(C)cc2)c1 [Compound 1058, 3-{[(2-Diethylamino-ethyl)-methyl-amino]-methyl}-N-[4-(4-fluoro-butoxy)-2-(4-methyl-benzylidene-hydrazinocarbonyl)-phenyl]-benzamide]",1070
8,"CCN(CC)CCN(C)Cc1cccc(C(=O)Nc2ccc(OCCCCF)cc2C(=O)N/N=C/c2ccc(C)c(C)c2)c1 [Compound 1059, 3-{[(2-Diethylamino-ethyl)-methyl-amino]-methyl}-N-[2-(3,4-dimethyl-benzylidene-hydrazinocarbonyl)-4-(4-fluoro-butoxy)-phenyl]-benzamide]",430
9,"CCN(CC)CCN(C)Cc1cccc(C(=O)Nc2ccc(OCCCCF)cc2C(=O)N/N=C/c2ccc(Cl)c(C(F)(F)F)c2)c1 [Compound 1060, N-[2-(4-Chloro-3-trifluoromethyl-benzylidene-hydrazinocarbonyl)-4-(4-fluoro-butoxy)-phenyl]-3-{[(2-diethylamino-ethyl)-methyl-amino]-methyl}-benzamide]",440
10,"CCN(CC)CCN(C)Cc1cccc(C(=O)Nc2ccc(OCCCCF)cc2C(=O)N/N=C/c2ccc(OC)cc2)c1 [Compound 1061, 3-{[(2-Diethylamino-ethyl)-methyl-amino]-methyl}-N-[4-(4-fluoro-butoxy)-2-(4-methoxy-benzylidene-hydrazinocarbonyl)-phenyl]-benzamide]",1990

# Same assay, conditions: phosphate uptake, oocytes expressing rat NaPi-2b; 100 μM, determined from inhibition curve
row,inhibition at 100 µM [%],SMILES
1,63.9,"O=C(Nc1ccc(N2CCC(CO)CC2)cc1C(=O)N/N=C/c1ccc(Cl)c(C(F)(F)F)c1)c1cccc(CSCCO)c1 [Compound 1063, N-[2-(4-Chloro-3-trifluoromethyl-benzylidene-hydrazinocarbonyl)-4-(4-hydroxymethyl-piperidin-1-yl)-phenyl]-3-(2-hydroxy-ethylsulfanylmethyl)-benzamide]"
2,74.4,COc1ccc(/C=N/NC(=O)c2cc(N3CCC(N4CCCCC4)CC3)ccc2NC(=O)c2cccc(CSCCO)c2)cc1 [Compound 1068]
